Results from patent publication US20060067931A1, “Receptor for lysophosphatidylcholine in vascular endothelial cells and use thereof” (priority 2004, published 2006).

Legend:
Assay type in all cases: cell-based, human
[1] = system: monocyte transmigration across HBMEC; assay: Monocyte transmigration assay across HBMEC
[2] = system: GPR4 mRNA; assay: RT-PCR of GPR4 mRNA in HBMEC; conditions: within 2 hours, TNF-α 100 U/ml or H2O2
[3] = system: GPR4 mRNA; assay: RT-PCR of GPR4 mRNA in HMEC; conditions: within 2 hours, TNF-α 100 U/ml or H2O2

Compound	effect on basal monocyte transmigration [1]	inhibition of LPC-induced monocyte transmigration [1]	GPR4 mRNA over control [2]	GPR4 mRNA over control [3]
C3 transferase	did not change basal monocyte transmigration	about 65%		
TNF-α			increased GPR4 mRNA over control	not HMEC
OO [H2O2]			increased GPR4 mRNA over control	not HMEC
